Results as given in patent US20090220599A1, “Antifungal formulation and manufacturing method thereof” (Industrial Technology Research Institute, priority 2003, published 2009).

Legend:
[1] = background statement; cited from earlier work
[2] = UV-Vis absorbance ratio of sterol-PEG/AmB (affinity comparison); format: binding; settings: for affinity ordering of sterol-PEG to AmB / variation of the UV-Vis absorbance ratios A415nm/A350nm: FIG. 2; for variation of the UV-Vis absorbance ratios A415nm/A350nm: for any mixing molar ratios with AmB
Method: (1) Adding 23.1 mg AmB aqueous solution to 5 ml dimethyl sulfoxide (DMSO), and then adding in 495 ml ionized water to prepare a mixture. Taking 10 ml volume out of the mixture, and diluting the 10 ml volume with 30 ml 1% dimethyl sulfoxide (DMSO) aqueous solution to prepare 12.5 μM AmB aqueous solution. (2) Adding 13 g n-propanol to 187 ml ionized water to prepare 6.5% n-propanol aqueous solution. (3) Adding 24.4 mg cholesterol-PEG600 to 6.5 g n-propanol, shaking them to completely dissolve cholesterol-PEG600 in n-propanol, and then adding in 93.5 g ionized water to prepare 250 μM cholesterol-PEG600 aqueous solution. (4) Adding […] stigmasterol-PEG600 to 6.5 g n-propanol, shaking them to completely dissolve stigmasterol-PEG600 in n-propanol, and then adding in 93.5 g ionized water to prepare 250 μM stigmasterol-PEG600 aqueous solution. (5) Adding 24.6 mg ergosterol-PEG600 to 6.5 g n-propanol, shaking them to completely dissolve ergosterol-PEG600 in n-propanol, and then adding in 93.5 g ionized water to prepare 250 μM ergosterol-PEG600 aqueous solution. (6) Mixing 10 ml 12.5 μM AmB and 10 ml 250 μM cholesterol-PEG600, the molar ratio of AmB/cholesterol-PEG600 is 1/20. The UV-Vis absorbance ratio A415nm/A350nm of AmB/cholesterol is 0.40 (scanning from 300 nm to 450 nm). (7) Mixing 10 ml 12.5 μM AmB, 5 ml 6.5% n-propanol and 5 ml 250 μM cholesterol-PEG600. The molar ratio of AmB/cholesterol-PEG600 is 1/10. The UV-Vis absorbance ratio of A415nm/A350nm of AmB/cholesterol-PEG600 is 0.44. (8) Mixing 10 ml 12.5 μM AmB, 7.5 ml 6.5% n-propanol and 2.5 ml 250 μM cholesterol-PEG600. The molar ratio of AmB/cholesterol-PEG600 is 1/5. The UV-Vis absorbance ratio of A415nm/A350nm of AmB/cholesterol-PEG600 is 0.48. (9) Mixing 10 ml 12.5 μM AmB, 9.5 ml 6.5% n-propanol and 0.5 ml 250 μM cholesterol-PEG600. The molar ratio of AmB/cholesterol-PEG600 is 1/1. The UV-Vis absorbance ratio of A415nm/A350nm of AmB/cholesterol-PEG600 is 0.48. (10) Measuring absorbance ratio of stigmasterol-PEG600/AmB and ergosterol-PEG600/AmB by the procedures with the same, the result is shown in FIG. 2.
(§1) Using UV-Vis spectroscopy to measure UV-Vis absorbance ratios of cholesterol-PEG600, stigmasterol-PEG600 and ergosterol-PEG600 prepared in Example I to AmB and UV-Vis absorbance ratios of cholesterol, stigmasterol and ergosterol to AmB. The results are as shown in FIG. 1 and FIG. 2, in which FIG. 1 is a curve diagram of A415nm/A350nm vs. sterol/AmB and FIG. 2 is a curve diagram of A415nm/A350nm vs. sterol-PEG600/AmB.

[3] = UV-Vis absorbance ratio of sterol/AmB (affinity comparison); format: binding; settings: for affinity ordering of these three sterols to AmB: FIG. 1, molar ratios from 1:1 to 20:1
Method: (1) Adding 23.1 mg Amphotericin B (AmB) to 5 ml dimethyl sulfoxide (DMSO), and then adding in 495 ml ionized water to prepare a mixture, and taking 10 ml volume out of the mixture; diluting the 10 volume with 30 ml 1% dimethyl sulfoxide (DMSO) solution to prepare 12.5 μM Amphotericin B (AmB) aqueous solution. (2) Adding 13 g n-propanol to 187 ml ionized water to prepare 6.5% n-propanol aqueous solution. (3) Adding 28.9 mg cholesterol to 19.5 g n-propanol, shaking them to completely dissolve cholesterol in n-propanol, and then adding in 280.5 gram ionized water to prepare 250 μM cholesterol aqueous solution. (4) Adding […] stigmasterol to 19.5 g n-propanol, shaking them to completely dissolve stigmasterol in n-propanol, and then adding in 280.5 gram ionized water to prepare 250 μM stigmasterol aqueous solution. (5) Adding 29.7 mg ergosterol to 19.5 g n-propanol, shaking them to completely dissolve ergosterol in n-propanol, and then adding in 280.5 gram ionized water to prepare 250 μM ergosterol aqueous solution. (6) Mixing 10 ml 12.5 μM AmB aqueous solution with 10 ml 250 μM cholesterol aqueous solution. The molar ratio of AmB/cholesterol is 1/20. The UV-Vis absorbance ratio A415nm/A350nm of AmB/cholesterol is 0.61 (scanning from 300 nm to 450 nm). (7) Mixing 10 ml 12.5 μM AmB aqueous solution, 5 ml 6.5% n-propanol aqueous solution and 5 ml 250 μM cholesterol aqueous solution. The molar ratio of AmB/cholesterol is 1/10. The UV-Vis absorbance ratio A415nm/A350nm of AmB/cholesterol is 0.59. (8) Mixing 10 ml 12.5 μM AmB aqueous solution, 7.5 ml 6.5% n-propanol aqueous solution and 2.5 ml 250 μM cholesterol aqueous solution. The molar ratio of AmB/cholesterol is 1/5. The UV-Vis absorbance ratio A415nm/A350nm of AmB/cholesterol is 0.60. (9) Mixing 10 ml 12.5 μM AmB aqueous solution, 9.5 ml 6.5% n-propanol aqueous solution and 0.5 ml 250 μM cholesterol aqueous solution. The molar ratio of AmB/cholesterol is 1/1. The UV-Vis absorbance ratio A415nm/A350nm of AmB/cholesterol is 0.49. (10) Measuring absorbance ratio of stigmasterol/AmB and ergosterol/AmB by the procedures with the same, the result is shown in FIG. 1.
as §1

Compound | affinity ordering of these three sterols to AmB [3] | affinity ordering of sterol-PEG to AmB [2] | variation of the UV-Vis absorbance ratios A415nm/A350nm [2] | also measured
C[C@@H]1[C@H](O)[C@@H](C)/C=C/C=C/C=C/C=C/C=C/C=C/C=C/[C@H](O[C@@H]2O[C@H](C)[C@@H](O)[C@H](N)[C@@H]2O)C[C@@H]2O[C@](O)(C[C@@H](O)C[C@@H](O)[C@H](O)CC[C@@H](O)C[C@@H](O)CC(=O)O[C@H]1C)C[C@H](O)[C@H]2C(=O)O [Amphotericin B] |  |  |  | affinity for ergosterol of fungal cells compared with that for cholesterols of mammal [1]: ten times better
CC(C)CCC[C@@H](C)[C@H]1CC[C@H]2[C@@H]3CC=C4C[C@@H](O)CC[C@]4(C)[C@H]3CC[C@]12C [cholesterol] | cholesterol<stigmasterol<ergosterol |  |  | UV-Vis absorbance ratio A415nm/A350nm ([2]; molar ratio of AmB/cholesterol-PEG600 1/20, scanning from 300 nm to 450 nm): 0.40; UV-Vis absorbance ratio A415nm/A350nm ([3]; molar ratio of AmB/cholesterol 1/1): 0.49; UV-Vis absorbance ratio A415nm/A350nm ([3]; molar ratio of AmB/cholesterol 1/5): 0.60; UV-Vis absorbance ratio A415nm/A350nm ([3]; molar ratio of AmB/cholesterol 1/10): 0.59; UV-Vis absorbance ratio A415nm/A350nm ([3]; molar ratio of AmB/cholesterol 1/20, scanning from 300 nm to 450 nm): 0.61
CC(C)[C@@H](C)/C=C/[C@@H](C)[C@H]1CC[C@H]2C3=CC=C4C[C@@H](O)CC[C@]4(C)[C@H]3CC[C@]12C [ergosterol] | cholesterol<stigmasterol<ergosterol |  |  | 
CC[C@H](/C=C/[C@@H](C)[C@H]1CC[C@H]2[C@@H]3CC=C4C[C@@H](O)CC[C@]4(C)[C@H]3CC[C@]12C)C(C)C [stigmasterol] | cholesterol<stigmasterol<ergosterol |  |  | 
cholesterol-PEG600 |  | ergosterol-PEG600>stigmasterol-PEG600>cholesterol-PEG600 | insignificant | UV-Vis absorbance ratio A415nm/A350nm ([2]; molar ratio of AmB/cholesterol-PEG600 1/1): 0.48; UV-Vis absorbance ratio A415nm/A350nm ([2]; molar ratio of AmB/cholesterol-PEG600 1/5): 0.48; UV-Vis absorbance ratio A415nm/A350nm ([2]; molar ratio of AmB/cholesterol-PEG600 1/10): 0.44
ergosterol-PEG600 |  | ergosterol-PEG600>stigmasterol-PEG600>cholesterol-PEG600 | insignificant | 
stigmasterol-PEG600 |  | ergosterol-PEG600>stigmasterol-PEG600>cholesterol-PEG600 | insignificant | 
